Patent publication US8815935B2, “Inhibitors of protein prenyltransferases” (The Regents of the University of California, priority 2008, dated 2014)
Read-outs that look alike come from different tables or passages of the source.

How the values were obtained:
GGTase-I = molecular target: T1, GGTase-I (Rattus norvegicus, UniProt P53610+Q04631); test: In vitro GGTase-I enzyme assay (IC50, kinetics); format: biochemical
T1 construct: purchased JENA BIOSCIENCE
Procedure: The GGTase-I assay was carried out using RhoA as a substrate protein, GGTase-I (JENA Bioscience) and [3H]geranylgeranyl pyrophosphate. Incubation was for 30 min at 37° C. GGTase-II (or RabGGTase) assay was carried out using YPTI as a substrate protein, GGTase-II (Calbiochem, San Diego, Calif.) plus REP1 (Calbiochem) and [3H]geranylgeranyl pyrophosphate. Incubation was for 30 min at 37° C. FIGS. 20D-20F show the three dimensional structure of GGTase I (D), FTsse (E) and GGTase II (F) which can be obtained from X-ray diffraction studies of protein crystals.
(§1) GGTase-I and FTase activities were determined by following the incorporation of radiolabeled isoprenoid [^3H]-geranylgeranyl or [^3H]-farnesyl into substrate proteins. FTase or GGTase-I (50 nM) were used to initiate reactions containing 0.4 μM of [^3H]-FPP or 0.5 μM of [^3H]-GGPP and 2 μM of MBP-tagged substrates (K-Ras4B for FTase; RhoA for GGTase-I) in 20 μl of buffer {50 mM Tris-HCl (pH 7.5), 10 mM MgCl2, […] and 5 mM DTT}. Inhibitors were added at the indicated concentrations. The final DMSO concentration was 2.5% for all samples.
(§2) Reactions were carried out for 10 min at 30° C. The reaction mixture was spotted onto a filter paper, treated with 10% trichloroacetic acid (TCA) followed by ethanol and acetone washing. The filter was counted using a scintillation counter. Kinetic assays in which the GGPP concentration was varied employed fixed concentrations of GGTase-I and RhoA, and reactions were carried out for 5 min. Similarly, fixed concentrations of GGTase-I and GGPP were used when the amount of RhoA was varied.

FTase = molecular target: T2, FTase (Rattus norvegicus, UniProt Q02293+Q04631); test: In vitro FTase assay (K-Ras4B substrate, [3H]FPP); format: biochemical; conditions: P3-D9, P3-E5: concentration increased to 100 (unit not given)
T2 construct: purchased JENA BIOSCIENCE
Text: To further characterize the pilot library, inhibitors of protein farnesyltransferase were identified. This was accomplished by using K-Ras4B as a substrate protein, tritiated farnesylpyrophosphate ([^3H]FPP) and protein farnesyltransferase. See Finegold, A. A., Johnson, D. I., Farnsworth, C. C., Gelb, M. H., Judd, S. R., Glomset, J. A. and Tamanoi, F. (1991) Protein geranylgeranyltransferase of Saccharomyces cerevisiae is specific for Cys-Xaa-Xaa-Leu motif and requires the CDC43 gene product but not the DPR1 gene product. Proc. Natl. Acad. Sci. USA 88, 4448-4452. […] On the other hand, the structure of the compounds P1-F11, P2-B7 and P2-E9 resemble those of GGTIs. The FTI P1-F11 resembles the GGTI P1-F10, while the FTI P2-B7 resembles the GGTI P2-C10. The FTI P2-E9 is similar to the GGTI P2-G3. Similarity of some GGTI and FTI compounds may point to common structural features between the two closely related enzymes. As described before, FTase and GGTase I have similar three-dimensional structures and a shared alpha subunit. On the other hand, FTase specific inhibitors may recognize a region(s) that is different between the two enzymes.
Examples 2-8 illustrate assays of bioactivity. These methods are applicable to the compounds of the present invention having the particular linkers and scaffolds described herein, to determine their activity. […] Varying concentrations of the two compounds were added to each enzyme reaction. The FTase (protein farnesyltransferase) assay was carried out using K-Ras4B as a substrate protein, FTase (JENA Bioscience, San Diego, Calif.) and [3H]farnesyl pyrophosphate. Incubation was for 30 min at 37° C.
as §1, §2

Capan-2 = Capan-2 cell growth inhibition; format: cell-based, human; conditions: no unit printed there
Procedure: (§3) In FIG. 9-24 in vitro IC50 values for the GGTase I activity are reported. In Tables 7-15 in cell GI50 values for the growth inhibition of a variety of cancer cell lines (e.g., Jurkat, K562, MDA-MB-231, BT474, MCF7, MiaPaCa2, Aspc-1, Panc-1, Capan-2, CFpac-1, and MCF10a) are reported.
(§4) Cell viability was determined by Cell Counting Kit-8 (CCK-8, Dojindo, Kumamoto, Japan) as described previously (31). Cell viability was calculated relative to the DMSO control. Cell cycle profile was analyzed by flow cytometry as described previously (32).

Panc-1 = Panc-1 cell growth inhibition; format: cell-based, human; conditions: no unit printed there
Procedure: as §3
(§5) Panc-1 cells (Pancreatic cancer cell line) and Jurkat cells (T-cell leukemia) were treated with 12.5 μM of P5-H6 or 12.5 μM of mP5-H6a for 72 hours. The cell number was counted as described in Example 5.
as §4

BT474 = BT474 cell growth inhibition; format: cell-based, human; conditions: no unit printed there
Procedure: as §3, §4

CFpac-1 = CFpac-1 cell growth inhibition; format: cell-based, human; conditions: no unit printed there
Procedure: as §3, §4

MiaPaCa2 = MiaPaCa2 cell growth inhibition; format: cell-based, human; conditions: no unit printed there
Procedure: as §3, §4

K562 cells = test: K562 cell growth inhibition; format: cell-based, human; conditions: no unit printed there
Procedure: K562 cells are a cell line of human erythroleukemia cells. The K562 cells were treated with P3-E5, P5-H6 or GGTI-298 (a known GGTI compound illustrated in FIG. 27) for 72 hours and then cell number was counted using cell counting kit-8 (Dojindo, Gaithersburg, Md.). Cell viability relative to the DMSO control and the known GGTI compound is plotted in FIG. 23.
as §4

MDA-MB-231 = MDA-MB-231 cell growth inhibition; format: cell-based, human; conditions: Tables 8-15, no unit printed there
Procedure: as §3, §4

Jurkat cells = test: Jurkat cell growth inhibition; format: cell-based, human
Procedure: In Table 4 in cell GI50 values for the growth inhibition of Jurkat cells are reported. The GI50 value is the concentration of a test compound needed to produce 50% growth inhibition in the cell type listed. In Table 4 the isolated yield of each synthetic step for the synthesis of corresponding compounds are also reported.
as §5, §4

Aspc-1 = Aspc-1 cell growth inhibition; format: cell-based, human; conditions: no unit printed there
Procedure: as §3, §4

MCF7 = MCF7 cell growth inhibition; format: cell-based, human; conditions: Homo sapiens, MCF7, Tables 8-15; no unit printed there
Procedure: as §3, §4

MCF10a = MCF10a cell growth inhibition; format: cell-based; conditions: Homo sapiens, MCF-10A, Tables 8-15; no unit printed there
Text: as §3

[1] = Homo sapiens, Capan-2, Tables 8-15
[2] = Homo sapiens, PANC-1, Tables 8-15
[3] = Homo sapiens, BT-474, Tables 8-15
[4] = Homo sapiens, CFPAC-1, Tables 8-15
[5] = Homo sapiens, MIA PaCa-2, Tables 8-15
[6] = Tables 3, 5, 7, read-out: In vitro (enzyme assay) IC50, GGTase I
[7] = Tables 8-15, no unit printed there (Table 7 head: μM unless otherwise specified), read-out: In vitro (GGTase I IC50)
[8] = Homo sapiens, K562, Tables 8-15
[9] = Homo sapiens, Jurkat, Tables 4, 6, 7, read-out: Jurkat cell GI50
[10] = Homo sapiens, Jurkat, Tables 8-15, no unit printed there, read-out: Jurkat GI50
[11] = Homo sapiens, ASPC1, Tables 8-15
[12] = Tables 4, 6, 7, read-out: Jurkat cell GI50

## Cn1cncc1CN1C[C@@H](Cc2ccccc2)N(S(=O)(=O)c2cccs2)Cc2cc(C#N)ccc21 [BMS225975, reference compound]
GGTase-I
  inhibition of GGTase I (FIG. 16 controls): does not inhibit GGTase I
FTase
  inhibition of FTase activity (FIG. 16): inhibits FTase

## CC(C)(C)[C@@H]1C=C(C(=O)N[C@@H](Cc2ccccc2)C(N)=O)[C@H](c2ccc(Br)cc2)N1S(=O)(=O)c1ccccc1Cl [P61-B08]
Capan-2; [1]
  GI50: 8.32 µM
Panc-1; [2]
  GI50: 9.05 µM
BT474; [3]
  GI50: 9.08 µM
CFpac-1; [4]
  GI50: 6.16 µM
MiaPaCa2; [5]
  GI50: 6.15 µM
GGTase-I; [6]
  IC50: 16 µM
GGTase-I; [7]
  IC50: 6 µM
K562 cells; [8]
  GI50: 5.21 µM
MDA-MB-231; listed as P61B8
  GI50: 4.43 µM
Jurkat cells; [9]
  GI50: 4.74 µM
Jurkat cells; [10]
  GI50: 4.74 µM
Aspc-1; [11]
  GI50: 12.2 µM

## CC(C)(C)[C@@H]1C=C(C(=O)N[C@@H](Cc2ccccc2)C(N)=O)[C@H](c2ccc(Br)cc2)N1S(=O)(=O)c1ccccc1Cl [P61-B09]
Capan-2; Tables 8-15, listed as P61B9
  GI50: 10.7 µM
Panc-1; Tables 8-15, listed as P61B9
  GI50: 12 µM
BT474; Tables 8-15, listed as P61B9
  GI50: 9.9 µM
CFpac-1; Tables 8-15, listed as P61B9
  GI50: 6.3 µM
MiaPaCa2; Tables 8-15, listed as P61B9
  GI50: 12.1 µM
GGTase-I; [6]
  IC50: > 10 µM
GGTase-I; [7]
  IC50: > 10 µM
K562 cells; Tables 8-15, listed as P61B9
  GI50: 9.18 µM
MDA-MB-231; listed as P61B9
  GI50: 11.3 µM
Jurkat cells; [12]
  GI50: 8.75 µM
Jurkat cells; Tables 8-15, no unit printed there, listed as P61B9, read-out: Jurkat GI50
  GI50: 8.75 µM
Aspc-1; Tables 8-15, listed as P61B9
  GI50: 16.8 µM

## Cc1ccccc1S(=O)(=O)N1[C@@H](c2ccc(Cl)c(Cl)c2)C(C(=O)N[C@@H](Cc2ccccc2)C(N)=O)=C[C@H]1C(C)(C)C [P61-B10]
Capan-2; [1]
  GI50: 8.45 µM
Panc-1; [2]
  GI50: 11.7 µM
BT474; [3]
  GI50: 10.8 µM
CFpac-1; Tables 8-15
  GI50: 6.09 µM
MiaPaCa2; [5]
  GI50: 8.06 µM
GGTase-I; [6]
  IC50: 5.4 µM
GGTase-I; [7]
  IC50: 5.4 µM
K562 cells; [8]
  GI50: 6.74 µM
MDA-MB-231
  GI50: 12.6 µM
Jurkat cells; [9]
  GI50: 5.62 µM
Jurkat cells; [10]
  GI50: 5.62 µM
Aspc-1; [11]
  GI50: 12.9 µM

## Cc1ccccc1S(=O)(=O)N1[C@@H](c2ccc(Cl)c(Cl)c2)C(C(=O)N[C@@H](Cc2ccccc2)C(N)=O)=C[C@H]1C(C)(C)C [P61-B11]
MCF7
  GI50: 4.74 µM
Capan-2; Tables 8-15
  GI50: 11.3 µM
Panc-1; Tables 8-15
  GI50: 7.52 µM
BT474; Tables 8-15
  GI50: 10.6 µM
MCF10a
  GI50: 9.38 µM
CFpac-1; Tables 8-15
  GI50: 2.03 µM
MiaPaCa2; Tables 8-15
  GI50: 7.49 µM
GGTase-I; [6]
  IC50: 7.6 µM
GGTase-I; [7]
  IC50: 7.6 µM
K562 cells; Tables 8-15
  GI50: 6.9 µM
MDA-MB-231
  GI50: 5.54 µM
Jurkat cells; [12]
  GI50: 6.9 µM
Jurkat cells; Tables 8-15, no unit printed there, read-out: Jurkat GI50
  GI50: 6.9 µM
Aspc-1; Tables 8-15
  GI50: 11.5 µM

## Cc1ccccc1S(=O)(=O)N1[C@@H](c2ccc(Cl)cc2)C(C(=O)N[C@@H](Cc2ccccc2)C(N)=O)=C[C@H]1C(C)CC(C)(C)C (some centres unmarked) [P61-C03]
MCF7
  GI50: 3.1 µM
Capan-2; [1]
  GI50: 10.5 µM
Panc-1; [2]
  GI50: 8.85 µM
BT474; [3]
  GI50: 10.8 µM
MCF10a
  GI50: 9.16 µM
CFpac-1; [4]
  GI50: 1.25 µM
MiaPaCa2; [5]
  GI50: 7.17 µM
GGTase-I; [6]
  IC50: > 10 µM
GGTase-I; [7]
  IC50: > 10 µM
K562 cells; [8]
  GI50: 6.3 µM
Jurkat cells; [9]
  GI50: 9.76 µM
Jurkat cells; [10]
  GI50: 9.79 µM
Aspc-1; [11]
  GI50: 11.4 µM
